Experimental data from PubChem BioAssay AID588778 (Southern Research Institute, 2011).
Converted amounts (≈) assume the structure as drawn. The source made the active and inactive calls. The rule behind the calls is not given here.

Test system: Vibrio cholerae motility, OD read-out
Experiment: Vibrio cholerae motility inhibitors, OD read-out (AID 588778)

**Q.** How did the IC50 turn out when `O=C1CC(Sc2ccccc2C(=O)O)C(=O)N1` (configuration not stated) was run?
**A.** 8.99 mg/L (inactive) (≈ 35.8 µM)

**Q.** Which IC50 does the source give for `CC(NC(=O)c1ccc([N+](=O)[O-])o1)C12CC3CC(CC(C3)C1)C2` (configuration not stated) here?
**A.** 3.3 mg/L (inactive) (≈ 10.4 µM)

**Q.** For `Cc1ccc(OCCn2ccnc2)c(Cl)c1`, which IC50 is on record?
**A.** 25.9 mg/L (inactive) (≈ 109 µM)

**Q.** For `COC(=O)c1sc2cc(NC(=S)NC(C)c3ccc4c(c3)OCO4)ccc2c1Cl` (configuration not stated), which IC50 is on record?
**A.** 46.8 mg/L (inactive) (≈ 104 µM)

**Q.** How did the IC50 turn out when `O=[N+]([O-])c1nn(Cc2ccc(F)cc2)cc1Br` was run?
**A.** 4.1 mg/L (≈ 13.7 µM)

**Q.** How did the IC50 turn out when `COC(=O)NC12CC3CC(CC(C3)C1)C2` was run?
**A.** 16.4 mg/L (inactive) (≈ 78.4 µM)

**Q.** Which IC50 does the source give for `Nc1nc(-c2ccccc2)cc(N2CCCCC2)n1` here?
**A.** 14.3 mg/L (inactive) (≈ 56.2 µM)

**Q.** How did the IC50 turn out when `C=CCNC(=S)Nc1ccc(Cl)c(Cl)c1` was run?
**A.** 26.4 mg/L (inactive) (≈ 101 µM)

**Q.** Which IC50 does the source give for `FC(F)(F)c1ccccc1-n1c(-c2cccnc2)n[nH]c1=S` here?
**A.** 6.15 mg/L (inactive) (≈ 19.1 µM)

**Q.** `CC[n+]1c(/C=C/c2ccc(-c3ccc([N+](=O)[O-])cc3)o2)ccc2ccccc21` was tested. Which IC50 did it give?
**A.** 15.3 mg/L (inactive)

**Q.** How did the IC50 turn out when `O=C(Oc1ccc(Cl)c2cccnc12)c1cccs1` was run?
**A.** 12.8 mg/L (inactive) (≈ 44.2 µM)

**Q.** Which IC50 does the source give for `O=C(N/C(=C/c1cccs1)c1nc2ccccc2[nH]1)c1cccs1` here?
**A.** 16.8 mg/L (inactive) (≈ 47.8 µM)

**Q.** `NC(=O)NNc1c2ccccc2nc2ccccc12` was tested. Which IC50 did it give?
**A.** 13 mg/L (inactive) (≈ 51.5 µM)

**Q.** For `Cc1ccc(C)c(Nc2nc(NCCO)c3ccccc3n2)c1`, which IC50 is on record?
**A.** 6.87 mg/L (≈ 22.3 µM)

**Q.** For `Nc1nc(NC(=O)c2ccco2)nn1-c1ccccc1`, which IC50 is on record?
**A.** 11.3 mg/L (≈ 42 µM)

**Q.** With `CC(=O)NC(=S)NNC(=O)c1ccc(-c2ccccc2)cc1` as the molecule, how does the IC50 read?
**A.** 1.96 mg/L (inactive) (≈ 6.25 µM)

**Q.** How did the IC50 turn out when `O=[N+]([O-])c1nn(Cc2c(F)cccc2Cl)cc1Cl` was run?
**A.** 1.4 mg/L (≈ 4.83 µM)
